Experimental findings from publication PMC7813677 (Frontiers in Bioengineering and Biotechnology, 2021) are described below.

Non-standard residues stand in square brackets, D forms with d. Residues, ends and D or L forms follow the SMILES beside them.

A short description of this series: Dissolution of the peptide in water. Format: physicochemical. Conditions: before addition of saline buffer pH 7.4. As to the method: Gels were prepared by dissolving lyophilized peptide in water to obtain 2X concentrated (wt%) peptide stock solution. Peptide assembly was initiated by mixing together equal volumes of peptide stock solution and chilled 2X HEPES buffer solution (150 mM HEPES, 300 mM NaCl, pH 7.4) on ice. The final mixed solution (1X wt% peptide in 75 mM HEPES, 150 mM NaCl, pH 7.4) was then incubated for 2 h at 37°C, resulting with a self-supporting gel.

Consider `CC(C)[C@H](N)C(=O)N[C@@H](CCCCN)C(=O)N[C@H](C(=O)N[C@@H](CCCCN)C(=O)N[C@H](C(=O)N[C@@H](CCCCN)C(=O)N[C@H](C(=O)N[C@@H](CCCCN)C(=O)N[C@H](C(=O)N1CCC[C@@H]1C(=O)N1CCC[C@H]1C(=O)N[C@H](C(=O)N[C@@H](CCCCN)C(=O)N[C@H](C(=O)N[C@@H](Cc1ccc(O)cc1)C(=O)N[C@H](C(=O)N[C@@H](CCCCN)C(=O)N[C@H](C(=O)N[C@@H](CCCCN)C(=O)N[C@H](C(N)=O)C(C)C)C(C)C)C(C)C)C(C)C)[C@@H](C)O)C(C)C)C(C)C)C(C)C)C(C)C` [tyrosine-functionalized peptide] (H-VKVKVKVKV[dP]PTKVYVKVKV-NH2), for which the Solubility in water entry is listed as “readily dissolved in water”.
